Results: ChEMBL document CHEMBL1152077, “Novel, water-soluble phosphate derivatives of 2-ethoxy carbonylpaclitaxel as potential prodrugs of paclitaxel: Synthesis and antitumor evaluation” (1995)

Legend:
Type in all cases: functional
Mus musculus [1] = assay: Tested in vivo antitumor activity at a dose of subcutaneous 40 mg/kg/injection in Madison 109 murine lung carcinoma (M109)
Mus musculus [2] = assay: Tested in vivo antitumor activity at a dose of subcutaneous 18 mg/kg/injection relative to paclitaxel in Madison 109 murine lung carcinoma (M109)
Mus musculus [3] = assay: Tested in vivo antitumor activity at a dose of subcutaneous 24 mg/kg/injection relative to paclitaxel in Madison 109 murine lung carcinoma (M109)
Mus musculus [4] = assay: Tested in vivo antitumor activity at a dose of subcutaneous 33 mg/kg/injection in Madison 109 murine lung carcinoma (M109)
Mus musculus [5] = assay: Tested in vivo antitumor activity at a dose of subcutaneous 48 mg/kg/injection relative to paclitaxel in Madison 109 murine lung carcinoma (M109)

CCOC(=O)O[C@@H](C(=O)O[C@H]1C[C@@]2(O)[C@@H](OC(=O)c3ccccc3)[C@@H]3[C@]4(OC(C)=O)CO[C@@H]4C[C@H](OC(=O)CC(C)(C)c4c(C)cc(C)cc4OP(=O)([O-])O)[C@@]3(C)C(=O)[C@H](OC(C)=O)C(=C1C)C2(C)C)[C@@H](NC(=O)c1ccccc1)c1ccccc1.[Na+]
T-C (Mus musculus [1]): 18 days (optimal dose)-1
T-C (Mus musculus [2]): 12.3 days (optimal dose)-1

CCOC(=O)O[C@@H](C(=O)O[C@H]1C[C@@]2(O)[C@@H](OC(=O)c3ccccc3)[C@@H]3[C@]4(OC(C)=O)CO[C@@H]4C[C@H](OC(=O)c4ccccc4COP(=O)([O-])O)[C@@]3(C)C(=O)[C@H](OC(C)=O)C(=C1C)C2(C)C)[C@@H](NC(=O)c1ccccc1)c1ccccc1.[K+]
T-C (Mus musculus [1]): 17 days (optimal dose)-1
T-C (Mus musculus [3]): 10.8 days (optimal dose)-1

CCOC(=O)O[C@@H](C(=O)O[C@H]1C[C@@]2(O)[C@@H](OC(=O)c3ccccc3)[C@@H]3[C@]4(OC(C)=O)CO[C@@H]4C[C@H](OC(=O)Cc4ccccc4OP(=O)([O-])O)[C@@]3(C)C(=O)[C@H](OC(C)=O)C(=C1C)C2(C)C)[C@@H](NC(=O)c1ccccc1)c1ccccc1.[Na+]
T-C (Mus musculus [4]): 1.5 days (optimal dose)-1
T-C (Mus musculus [5]): 15.8 days (optimal dose)-1
